In ChEMBL document CHEMBL5236598, “Lead Optimization and Avoidance of Metabolic-perturbing Motif Developing Novel Diarylpyrimidines as Potent HIV-1 NNRTIs” (J Med Chem, 2022):

Key:
[1] = Selectivity index, ratio of CC50 for cytotoxicity against human MT4 cells to EC50 for antiviral activity against HIV-1 RES056 harboring RT K103N/Y181C double mutant infected in human MT4 cells; format: toxicity, cell-based; settings: read-out: Ratio CC50/EC50
[2] = tested on: Human immunodeficiency virus 1; test: Antiviral activity against wild type HIV-1 IIIB infected in human MT4 cells assessed as protection against virus-induced cytopathic effect incubated for 5 days by MTT assay; format: functional, organism-based; settings: Human immunodeficiency virus 1, IIIB, MT4, 120 h
[3] = Cytotoxicity against human MT4 cells assessed as reduction in cell viability measured after 5 days by MTT assay; format: toxicity, cell-based; settings: time 5 day
[4] = tested on: Human immunodeficiency virus 1; test: Antiviral activity against HIV-1 RES056 harboring RT K103N/Y181C double mutant infected in human MT4 cells assessed as protection against virus-induced cytopathic effect incubated for 5 days by MTT assay; format: functional, organism-based; settings: Human immunodeficiency virus 1, RES056, MT4, 120 h
[5] = Selectivity index, ratio of CC50 for cytotoxicity against human MT4 cells to EC50 for antiviral activity against wild type HIV-1 IIIB infected in human MT4 cells; format: toxicity, cell-based; settings: read-out: Ratio CC50/EC50

What does the source list for Cc1cc(-c2ccc(C#N)cc2)cc(C)c1Oc1nc(Nc2ccc(C#N)nc2)nc2ccsc12?
selectivity ratio [1]: 563; EC50 [2]: 0.00762 µM; CC50 at 120 h [3]: 214 µM; EC50 [4]: 0.381 µM; selectivity ratio [5]: 28100

Which selectivity ratio [1] does the source give for Cc1cc(C#N)cc(C)c1Oc1nc(NC2CCN(c3c(F)cc([N+](=O)[O-])cc3F)CC2)nc2sccc12 here?
The selectivity ratio was less than 1.

What about the EC50 [2] of the same compound?
Its EC50 is 0.0451 µM.

And the CC50 at 120 h [3]?
Its CC50 at 120 h is greater than 233 µM.

What about the EC50 [4] of the same compound?
Its EC50 is greater than 211 µM.

And the selectivity ratio [5]?
Its selectivity ratio is greater than 5170.

Which selectivity ratio [1] does the source give for N#C/C=C/c1cc(F)c(Oc2nc(Nc3ccc(C#N)c(F)c3)nc3sccc23)c(F)c1 here?
The selectivity ratio was less than 1.

What about the EC50 [2] of the same compound?
The EC50 was 0.0524 µM.

And the CC50 at 120 h [3]?
Its CC50 at 120 h is 117 µM.

And the EC50 [4]?
The EC50 was greater than 117 µM.

And the selectivity ratio [5]?
The selectivity ratio was 2240.

For Cc1cc(C#N)cc(C)c1Oc1nc(NC2CCN(c3c(F)cc(NS(N)(=O)=O)cc3F)CC2)nc2sccc12, which selectivity ratio [1] is on record?
The selectivity ratio was less than 1.

What about the EC50 [2] of the same compound?
Its EC50 is 0.0123 µM.

What about the CC50 at 120 h [3] of the same compound?
The CC50 at 120 h was 3.96 µM.

And the EC50 [4]?
The EC50 was greater than 3.96 µM.

What about the selectivity ratio [5] of the same compound?
The selectivity ratio was 322.

For Cc1cc(C#N)cc(C)c1Oc1nc(NC2CCN(c3c(F)cc(N)cc3F)CC2)nc2sccc12, which selectivity ratio [1] is on record?
The selectivity ratio was less than 1.

What about the EC50 [2] of the same compound?
The EC50 was 0.0325 µM.

What about the CC50 at 120 h [3] of the same compound?
Its CC50 at 120 h is 5.45 µM.

What about the EC50 [4] of the same compound?
Its EC50 is greater than 5.45 µM.

What about the selectivity ratio [5] of the same compound?
The selectivity ratio was 168.

With Cc1cc(C#N)cc(C)c1Oc1nc(NC2CCN(c3c(F)cc(N)cc3F)CC2)nc2ccsc12 as the compound, how does the selectivity ratio [1] read?
The selectivity ratio was less than 1.

And the EC50 [2]?
Its EC50 is 0.0374 µM.

And the CC50 at 120 h [3]?
The CC50 at 120 h was 5.45 µM.

And the EC50 [4]?
The EC50 was greater than 5.54 µM.

And the selectivity ratio [5]?
Its selectivity ratio is 146.

Which results are given for Cc1cc(/C=C/C#N)cc(C)c1Oc1nc(NC2CCN(c3ccc([N+](=O)[O-])cc3F)CC2)nc2sccc12?
selectivity ratio [1]: > 169; EC50 [2]: 0.0296 µM; CC50 at 120 h [3]: > 229 µM; EC50 [4]: 1.35 µM; selectivity ratio [5]: > 7740

Which selectivity ratio [1] does the source give for Cc1cc(-c2ccc(C#N)cc2)cc(C)c1Oc1nc(Nc2ccc(C#N)c(F)c2)nc2ccsc12 here?
Its selectivity ratio is 11.

And the EC50 [2]?
Its EC50 is 0.711 µM.

What about the CC50 at 120 h [3] of the same compound?
The CC50 at 120 h was 71.5 µM.

And the EC50 [4]?
The EC50 was 6.35 µM.

What about the selectivity ratio [5] of the same compound?
The selectivity ratio was 101.
